{
  "source": "patent US20230109016A1",
  "about": "“IN-VITRO DIAGNOSIS OF HISTAMINE INTOLERANCE SYNDROME” (IMMUNDIAGNOSTIK AG, priority 2020, published 2023)",
  "origin": "cited, not measured here",
  "data": [
    {"target": "T1, DAO in serum (Homo sapiens, UniProt P19801)", "T1 construct": "host or cells: serum", "T1 sequence (P19801 20-751)": "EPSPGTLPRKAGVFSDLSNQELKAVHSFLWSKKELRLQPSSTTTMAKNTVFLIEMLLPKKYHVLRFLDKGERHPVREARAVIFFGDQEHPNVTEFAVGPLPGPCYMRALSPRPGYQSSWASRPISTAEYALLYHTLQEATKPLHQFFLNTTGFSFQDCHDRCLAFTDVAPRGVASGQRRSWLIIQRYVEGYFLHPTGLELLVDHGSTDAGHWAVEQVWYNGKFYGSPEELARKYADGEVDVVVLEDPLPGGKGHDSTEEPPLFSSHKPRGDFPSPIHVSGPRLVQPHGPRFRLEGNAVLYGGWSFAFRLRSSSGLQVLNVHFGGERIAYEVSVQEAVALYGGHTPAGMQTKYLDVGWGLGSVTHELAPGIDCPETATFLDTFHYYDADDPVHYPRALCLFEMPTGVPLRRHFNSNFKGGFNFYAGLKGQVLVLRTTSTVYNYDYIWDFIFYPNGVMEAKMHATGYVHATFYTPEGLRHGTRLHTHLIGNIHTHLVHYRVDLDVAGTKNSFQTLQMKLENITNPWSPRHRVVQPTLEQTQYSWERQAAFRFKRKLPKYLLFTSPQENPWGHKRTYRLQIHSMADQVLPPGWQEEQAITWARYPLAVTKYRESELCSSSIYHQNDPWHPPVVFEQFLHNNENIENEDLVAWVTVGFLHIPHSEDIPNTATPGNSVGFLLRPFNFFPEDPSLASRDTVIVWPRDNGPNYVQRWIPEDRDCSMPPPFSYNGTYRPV", "details": "not given", "values": [
      {"compound": "CCCC(C)C1(CC)C(=O)NC(=S)NC1=O", "note": "(centres unmarked) [thiopental]", "effect on the activity of DAO in serum": "inhibited"},
      {"compound": "CCOC(=O)C1(c2ccccc2)CCN(C)CC1", "note": "[pethidine]", "effect on the activity of DAO in serum": "inhibited"},
      {"compound": "CN1CC[C@]23c4c5ccc(O)c4O[C@H]2[C@@H](O)C=C[C@H]3[C@H]1C5", "note": "[morphine]", "effect on the activity of DAO in serum": "inhibited"}
    ]},
    {"target": "T1, DAO in serum", "details": "stated as known", "values": [
      {"compound": "N=C(N)c1ccc(OCCCCCOc2ccc(C(=N)N)cc2)cc1", "note": "[pentamidin]", "effect on the activity of DAO in serum": "inhibited"},
      {"compound": "CC(=O)O[C@H]1C[C@@H]2CC[C@@H]3[C@H](CC[C@@]4(C)[C@H]3C[C@H]([N+]3(C)CCCCC3)[C@@H]4OC(C)=O)[C@@]2(C)C[C@@H]1[N+]1(C)CCCCC1", "note": "[pancuronium]", "effect on the activity of DAO in serum": "inhibited"},
      {"compound": "C=CC[N@@+]12CC[C@@]34c5ccccc5N5/C=C6/[C@H]7C[C@H]8[C@@]9(CC[N@@+]8(CC=C)C/C7=C/CO)c7ccccc7N(/C=C(/[C@@H](C[C@@H]31)/C(=C\\CO)C2)[C@H]54)[C@@H]69", "note": "[alcuronium]", "effect on the activity of DAO in serum": "inhibited"},
      {"compound": "Nc1c(Br)cc(Br)cc1CN[C@H]1CC[C@H](O)CC1", "note": "[ambroxol]", "effect on the activity of DAO in serum": "inhibited"},
      {"compound": "NNC(=O)c1ccncc1", "note": "[isoniazid]", "effect on the activity of DAO in serum": "inhibited"},
      {"compound": "O=C(O)[C@H]1/C(=C/CO)O[C@@H]2CC(=O)N21", "note": "[clavulanic acid]", "effect on the activity of DAO in serum": "inhibited"},
      {"compound": "N/N=c1\\[nH][nH]/c(=N\\N)c2ccccc12", "note": "[dihydralazin]", "effect on the activity of DAO in serum": "inhibited"},
      {"compound": "CO/N=C(\\C(=O)N[C@@H]1C(=O)N2C(C(=O)O)=C(COC(N)=O)CS[C@H]12)c1ccco1", "note": "[cefuroxime]", "effect on the activity of DAO in serum": "inhibited"},
      {"compound": "CC(=O)Oc1ccccc1C(=O)O", "note": "[acetylsalicylic acid]", "effect on the activity of DAO in serum": "inhibited"},
      {"compound": "CCCNC(C)C(=O)Nc1ccccc1C", "note": "(centres unmarked) [prilocaine]", "effect on the activity of DAO in serum": "inhibited"},
      {"compound": "CN(C)CCn1nnnc1SCC1=C(C(=O)O)N2C(=O)[C@@H](NC(=O)Cc3csc(N)n3)[C@H]2SC1", "note": "[cefotiam]", "effect on the activity of DAO in serum": "inhibited"},
      {"compound": "CCN(CC)CCNC(=O)c1cc(Cl)c(N)cc1OC", "note": "[metoclopramide]", "effect on the activity of DAO in serum": "inhibited"},
      {"compound": "C=CCc1ccccc1OCC(O)CNC(C)C", "note": "(centres unmarked) [alprenolol]", "effect on the activity of DAO in serum": "inhibited"},
      {"compound": "Cc1c(N(C)CS(=O)(=O)O)c(=O)n(-c2ccccc2)n1C", "note": "[metamizole]", "effect on the activity of DAO in serum": "inhibited"},
      {"compound": "O=P1(N(CCCl)CCCl)NCCCO1", "note": "(centres unmarked) [cyclophosphamide]", "effect on the activity of DAO in serum": "inhibited"},
      {"compound": "CN/C(=N/CCSCc1nc[nH]c1C)NC#N", "note": "[cimetidine]", "effect on the activity of DAO in serum": "inhibited"},
      {"compound": "COc1cc2c3cc1Oc1cc(ccc1O)C[C@@H]1c4c(cc(OC)c(O)c4Oc4ccc(cc4)C[C@@H]3N(C)CC2)CC[N+]1(C)C", "note": "[D-tubocurarine]", "effect on the activity of DAO in serum": "inhibited"},
      {"compound": "CC(=O)N[C@@H](CS)C(=O)O", "note": "[acetylcysteine]", "effect on the activity of DAO in serum": "inhibited"},
      {"compound": "CC(CCc1ccc(O)cc1)NCCc1ccc(O)c(O)c1", "note": "(centres unmarked) [dobutamine]", "effect on the activity of DAO in serum": "inhibited"},
      {"compound": "CCN(CC)CCCC(C)Nc1ccnc2cc(Cl)ccc12", "note": "(centres unmarked) [chloroquine]", "effect on the activity of DAO in serum": "inhibited"},
      {"compound": "N=C(N)NC(=O)c1nc(Cl)c(N)nc1N", "note": "[amiloride]", "effect on the activity of DAO in serum": "inhibited"},
      {"compound": "Cn1c(=O)c2[nH]cnc2n(C)c1=O", "note": "[aminophylline]", "effect on the activity of DAO in serum": "inhibited"},
      {"compound": "CN(C)CCC=C1c2ccccc2CCc2ccccc21", "note": "[amitriptyline]", "effect on the activity of DAO in serum": "inhibited"}
    ]},
    {"target": "Human serum DAO (Homo sapiens, UniProt P19801)", "details": "100 micromolar histamine in the assay", "values": [
      {"compound": "NCCc1c[nH]cn1", "note": "[histamine, 2-(4-imidazolyl)-ethylamine]", "inhibition of human serum DAO": "partly inhibited"}
    ]},
    {"target": "Human serum DAO (Homo sapiens, UniProt P19801)", "details": "histamine concentration of 500 micromoles (U.S. Pat. No. 8,003,343)", "values": [
      {"compound": "NCCc1c[nH]cn1", "note": "[histamine, 2-(4-imidazolyl)-ethylamine]", "inhibition of human DAO activity": "about 60%"}
    ]},
    {"tested_on": "DAO", "details": "within 30 minutes of heparin administration", "values": [
      {"compound": "heparin", "DAO levels in humans": "increase sharply"}
    ]},
    {"target": "T2, DAO (Homo sapiens, UniProt P19801)", "T2 sequence (P19801 20-751)": "T1 sequence (P19801 20-751)", "details": "14C-putrescine 1 micromole to 5 millimole", "values": [
      {"compound": "N=C(N)NN", "note": "[alpha-aminoguanidine]", "sensitivity of serum DAO (high affinity enzyme) to inhibitor": "sensitive"}
    ]},
    {"tested_on": "MAO", "details": "14C-putrescine 1 micromole to 5 millimole", "values": [
      {"compound": "C#CCN(C)[C@H](C)Cc1ccccc1", "note": "[selegiline]", "sensitivity of serum MAO (lower affinity enzyme) to inhibitor": "sensitive"}
    ]},
    {"target": "T2, DAO", "details": "presence of heparin in experiments with cell culture", "values": [
      {"compound": "heparin", "impact on the DAO level or its activity": "no impact"}
    ]},
    {"target": "recombinant human kidney DAO (Homo sapiens, UniProt P19801)", "details": "read-out: Km (Michaelis constant); isolated recombinant human kidney DAO expressed in Drosophila cells (Elmore et al. 2002)", "units": {"Km": "µM"}, "values": [
      {"compound": "NCCCCN", "note": "[putrescine, 1,4-diaminobutane]", "Km": "~20"},
      {"compound": "NCCc1c[nH]cn1", "note": "[histamine, 2-(4-imidazolyl)-ethylamine]", "Km": "~2.8"}
    ]},
    {"tested_on": "not given", "details": "37° C.", "units": {"apparent half-life in serum": "h"}, "values": [
      {"compound": "NCCc1c[nH]cn1", "note": "[histamine, 2-(4-imidazolyl)-ethylamine]", "apparent half-life in serum": "0.033 to 4"}
    ]}
  ]
}
